Patent US20230066011A1, “PYRROLOPYRIMIDINE DERIVATIVE, AND PHARMACEUTICAL COMPOSITION FOR PREVENTING OR TREATING PROTEIN KINASE-RELATED DISEASE COMPRISING SAME AS ACTIVE INGREDIENT” (VORONOI CO., LTD., priority 2019, published 2023)

Experiments:
DYRK1 = DYRK1 (Homo sapiens, UniProt Q13627); assay: Kinase HotSpot service (Reaction Biology Corporation), DYRK1; format: biochemical; settings: ATP 10 uM, read-out: DYRK1 IC50 (values indicated by *)
Description: The inhibitory activities of the compounds were measured at a 3-fold concentration gradient starting from a maximum compound concentration of […], and the values measured using the Kinase HotSpot service (Reaction Biology Corporation) are indicated by an asterisk (*).
All the experimental methods were performed as provided by the Kinase HotSpot Customer Protocol (http://www.reactionbiology.com//Kinase_Assay_Protocol).

human GST-CLK1 = biological target: T1, human GST-CLK1 (Homo sapiens, UniProt P49759); assay: GST-CLK1 enzyme inhibition, ADP-Glo kinase assay; format: biochemical; settings: ATP 10 μM, GST-CLK1 129-end
T1 construct: purified human GST-CLK1 (129-end, SignalChem) enzyme; purchased SignalChem
T1 sequence (P49759 129-484 limits assumed): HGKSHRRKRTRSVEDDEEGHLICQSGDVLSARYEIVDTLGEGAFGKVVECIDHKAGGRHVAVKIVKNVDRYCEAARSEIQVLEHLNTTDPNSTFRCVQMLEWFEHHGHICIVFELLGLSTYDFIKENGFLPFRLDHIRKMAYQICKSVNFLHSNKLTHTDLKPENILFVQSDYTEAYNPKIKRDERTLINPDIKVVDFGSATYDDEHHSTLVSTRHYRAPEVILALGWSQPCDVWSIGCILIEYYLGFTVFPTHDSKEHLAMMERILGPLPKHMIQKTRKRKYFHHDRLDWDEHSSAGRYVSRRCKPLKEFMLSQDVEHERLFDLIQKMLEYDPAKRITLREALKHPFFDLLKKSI
How it was run: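 Human GST-CLK1 (129-end, 3 ng) reacted with substrate and 10 μM ATP for 1 h at 25° C in 40 mM Tris-HCl pH 7.4, 20 mM MgCl2, 0.5 mg/mL BSA, 50 μM DTT. ADP-Glo luminescence was normalised to solvent control; IC50 (nM) from 3 data sets.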

TNF-α = assay: Inhibition of LPS-induced TNF-α secretion of THP-1 monocytes (ELISA); format: cell-based, human; settings: compound 0.5 μM, LPS 500 ng/mL, 24 hours; for inhibition at 0.5 µM: Homo sapiens, THP-1, read-out: THP-1/TNF-α (% inhib)
Description: (§1) To evaluate an inhibitory effect on cytokine secretion of monocytes, THP-1 cells (ATCC, #TIB-202) as a human-derived monocyte line were cultured in an RPMI-1640 (Hyclone, SH30027.01) medium supplemented with 10% fetal bovine serum (Hyclone, SH30084.03), 1% penicillin streptomycin (Welgene, LS202-02), and 50 μM 2-mercaptoethanol (Gibco, #21985023). In the test, the cells were seeded in a 48-well plate (SPL, #30048) at a density of 1.5 to 2×10^5 cells/250 μL per well, and cultured at 37° C. for 16 hours in a 5% CO2 incubator. Thereafter, the compound was diluted with DMSO so that the final concentration of the compound was 0.5 μM. Then, the cells were treated with the diluted compound before an hour of treatment with lipopolysaccharides (LPS) (Sigma, #L6529). After the treatment with the compound, the cells were treated with LPS so that the final concentration was 500 ng/mL. Then, a cell culture broth was collected after 24 hours of culture, and levels of cytokine IL-6 (R&D Systems, #D6050) and TNF-α (R&D Systems, #DTA00D) comprised in the culture broth were measured using respective ELISA kits. After an experiment was performed according to the manufacturer's guidelines, cell analysis was performed by measuring the optical density at 450 nm using a microplate reader.

IL-6 = assay: Inhibition of LPS-induced IL-6 secretion of THP-1 monocytes (ELISA); format: cell-based, human; settings: compound 0.5 μM, LPS 500 ng/mL, 24 hours; for inhibition at 0.5 µM: Homo sapiens, THP-1, read-out: THP1/IL6 (% inhib)
Description: as §1

LRRK2 = LRRK2 (Homo sapiens, UniProt Q5S007); assay: LRRK2 enzyme inhibition, ADP-Glo kinase assay; format: biochemical; parameters: purchased Invitrogen PR8604B; settings: ATP 10 μM
Chain of LRRK2 (Q5S007 970-2527 limits assumed): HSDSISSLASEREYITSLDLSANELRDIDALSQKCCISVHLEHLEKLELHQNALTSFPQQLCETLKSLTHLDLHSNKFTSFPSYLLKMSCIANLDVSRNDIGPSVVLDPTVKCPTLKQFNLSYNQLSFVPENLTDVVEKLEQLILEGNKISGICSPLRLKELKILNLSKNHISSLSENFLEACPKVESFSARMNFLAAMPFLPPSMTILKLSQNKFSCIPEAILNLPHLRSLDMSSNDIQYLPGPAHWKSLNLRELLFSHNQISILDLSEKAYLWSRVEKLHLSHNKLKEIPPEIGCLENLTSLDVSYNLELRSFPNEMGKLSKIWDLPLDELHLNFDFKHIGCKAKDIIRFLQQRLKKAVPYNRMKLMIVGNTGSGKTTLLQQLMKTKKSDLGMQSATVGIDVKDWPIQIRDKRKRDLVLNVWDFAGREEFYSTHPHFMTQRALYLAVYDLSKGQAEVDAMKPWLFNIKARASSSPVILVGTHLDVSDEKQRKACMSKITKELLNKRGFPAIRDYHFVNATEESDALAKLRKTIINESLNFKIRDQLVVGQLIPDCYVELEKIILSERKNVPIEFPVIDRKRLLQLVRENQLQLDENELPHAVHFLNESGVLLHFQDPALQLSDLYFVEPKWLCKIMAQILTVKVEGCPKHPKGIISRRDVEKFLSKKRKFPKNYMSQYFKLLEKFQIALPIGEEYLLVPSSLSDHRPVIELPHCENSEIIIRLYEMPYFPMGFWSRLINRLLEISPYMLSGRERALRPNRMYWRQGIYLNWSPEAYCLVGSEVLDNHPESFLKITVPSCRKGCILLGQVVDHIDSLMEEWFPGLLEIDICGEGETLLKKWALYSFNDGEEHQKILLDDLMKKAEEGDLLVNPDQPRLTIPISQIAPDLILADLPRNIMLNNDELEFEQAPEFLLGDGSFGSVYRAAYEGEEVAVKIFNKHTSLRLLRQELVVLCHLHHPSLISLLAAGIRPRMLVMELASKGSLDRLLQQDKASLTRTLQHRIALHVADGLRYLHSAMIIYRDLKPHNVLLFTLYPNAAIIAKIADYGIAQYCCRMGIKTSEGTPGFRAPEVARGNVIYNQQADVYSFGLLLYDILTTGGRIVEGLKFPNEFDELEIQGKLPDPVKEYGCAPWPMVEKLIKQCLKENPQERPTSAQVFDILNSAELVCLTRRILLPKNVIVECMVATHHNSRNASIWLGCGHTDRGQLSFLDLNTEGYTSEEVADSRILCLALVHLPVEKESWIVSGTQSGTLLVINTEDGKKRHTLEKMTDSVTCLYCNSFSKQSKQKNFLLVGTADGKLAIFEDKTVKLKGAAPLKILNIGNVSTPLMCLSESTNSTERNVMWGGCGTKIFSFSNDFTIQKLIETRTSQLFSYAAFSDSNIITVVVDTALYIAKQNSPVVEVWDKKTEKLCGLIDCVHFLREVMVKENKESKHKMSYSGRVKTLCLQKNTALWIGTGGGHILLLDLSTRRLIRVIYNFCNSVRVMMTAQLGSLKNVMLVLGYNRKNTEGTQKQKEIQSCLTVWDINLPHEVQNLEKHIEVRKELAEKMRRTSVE
How it was run: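 Purified human LRRK2 (25 ng) with 10 μM ATP and 0.2 μg substrate in 40 mM Tris-HCl pH 7.4, 20 mM MgCl2, 0.5 mg/mL BSA, 50 μM DTT, 2 h at 25° C. ADP-Glo luminescence; 12-point compound series from 50 μM final; IC50 relative to solvent control.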

human GST-DYRK1A = biological target: T2, human GST-DYRK1A (Homo sapiens, UniProt Q13627); assay: GST-DYRK1A enzyme inhibition, ADP-Glo kinase assay; format: biochemical; settings: ATP 10 μM, GST-DYRK1A full length, read-out: DYRK1 IC50
T2 construct: purified human GST-DYRK1A (full length, Thermo Scientifics) enzyme; purchased Thermo Scientifics
How it was run: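 Full-length human GST-DYRK1A (10 ng) with 10 μM ATP and specific substrate in 40 mM Tris-HCl pH 7.4, 20 mM MgCl2, 0.5 mg/mL BSA, 50 μM DTT, 1 h at 25 °C. ADP formation read by ADP-Glo luminescence relative to solvent control; IC50 from three data sets.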

human DYRK1A and tau = assay: Inhibition of tau phosphorylation, ClariCELL Kinase Cell-Based Assay, HEK 293 cells expressing human DYRK1A and tau; settings: for inhibition at 1 µM: HEK293, read-out: % inhibition at 1 uM, tau phosphorylation, compound 1 uM; for inhibition at 0.25 µM / inhibition at 0.5 µM: HEK293, tau phosphorylation
Description: An inhibitory effect on tau phosphorylation was determined using the ClariCELL™ Kinase Cell-Based Assay service (commercially available from CamaBio USA, Inc.). Human embryonic kidney (HEK 293) cells temporarily expressing human DYRK1A and tau were exposed to the compound, and then lysed to release cell proteins. In this case, the released tau was captured on a plate, and a degree of phosphorylation was quantified by ELISA using a tau phosphorylation-specific antibody.

LRRK2 (G2019S) = LRRK2 (G2019S) (Homo sapiens, UniProt Q5S007, G2019S); assay: LRRK2 G2019S enzyme inhibition, ADP-Glo kinase assay; format: biochemical; parameters: purchased SignalChem L10-12GG; settings: ATP 25 μM
Chain of LRRK2 (G2019S) (Q5S007 970-2527 G2019S limits assumed): as the sequence (Q5S007 970-2527 limits assumed) above, with G1050S counted along it
How it was run: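 Purified human LRRK2 G2019S (16 ng) with 25 μM ATP and 0.2 μg substrate, 2 h at 25° C. in Tris-HCl pH 7.4, MgCl2, BSA, DTT buffer; compounds at 12 final concentrations, 50 μM down to 0.000001024 μM. ADP-Glo luminescence versus solvent control gave IC50.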

MDA-MB-468 cell line = assay: Inhibition of proliferation of MDA-MB-468 cancer cells (Cell Titer-Glo); format: cell-based; settings: 72 hours
How it was run: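 Step one, seed 2,000 cells per well in DMEM or RPMI. Step two, add compound at 11 final concentrations (10 to 0.000169 μM, 3-fold series) and culture for 72 hours. Step three, add Cell Titer-Glo, wait 10 min at room temperature, read luminescence and calculate GI50.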

IC50 (DYRK1) [nM] | IC50 (human GST-CLK1) [nM] | IC50 (LRRK2) [nM] | IC50 (human GST-DYRK1A) [nM] | IC50 (LRRK2 (G2019S)) [nM] | Compound | inhibition at 0.5 µM (TNF-α) [%] | inhibition at 0.5 µM (IL-6) [%] | inhibition at 1 µM (human DYRK1A and tau) [%] | inhibition at 0.25 µM (human DYRK1A and tau; compound 0.25 uM) [%] | inhibition at 0.5 µM (human DYRK1A and tau; compound 0.5 uM) [%] | THP-1/TNF-α (% inhib) (TNF-α) | THP1/IL6 (% inhib) (IL-6) | GI50 (MDA-MB-468 cell line) [nM] | % inhibition at 0.25 uM (human DYRK1A and tau; tau phosphorylation, compound 0.25 uM) [%] | % inhibition at 0.5 uM (human DYRK1A and tau; tau phosphorylation, compound 0.5 uM) [%] | % inhibition at 1 uM (human DYRK1A and tau; tau phosphorylation, compound 1 uM) [%]
< 100 | 101 to 300 |  |  |  | COc1cc(P(C)(C)=O)ccc1Nc1nc(C2CC2)c2c(C(F)(F)F)c[nH]c2n1 [Example 229, (4-((4-cyclopropyl-5-(trifluoromethyl)-7H-pyrrolo[2,3-d]pyrimidin-2-yl)amino)-3-methoxyphenyl)dimethylphosphine oxide] |  |  |  |  |  |  |  |  |  |  | 
 | < 100 | < 100 | < 100 |  | CNc1nc(Nc2ccc(C(=O)N3C[C@@H]4C[C@H]3CO4)c3c2OCCO3)nc2[nH]cc(C(F)(F)F)c12 [Example 408, ((1S,4S)-2-oxa-5-azabicyclo[2.2.1]heptan-5-yl)(8-((4-(methylamino)-5-(trifluoromethyl)-7H-pyrrolo[2,3-d]pyrimidin-2-yl)amino)-2,3-dihydrobenzo[b] [1,4]dioxin-5-yl)methanone] | 4.3 | 19.5 | 48.5 | 20.6 | 40.3 |  |  |  |  |  | 
 | < 100 |  | < 100 | < 100 | O=C(c1ccc(Nc2nc(N[C@H]3CCOC3)c3c(C(F)(F)F)c[nH]c3n2)c2c1OCCO2)N1CCN(C2COC2)CC1 [Example 418, (S)-(4-(oxetan-3-yl)piperazin-1-yl)(8-((4-((tetra-hydrofuran-3-yl)amino)-5-(trifluoromethyl)-7H-pyrrolo[2,3-d]pyrimidin-2-yl)amino)-2,3-dihydrobenzo[b] [1,4]dioxin-5-yl)methanone] | 8.5 | 35.5 | 80.2 | 46.2 | 55.4 |  |  |  |  |  | 
 | < 100 |  | < 100 |  | CCCNc1nc(Nc2ccc(C(=O)N3CCC(N4CCOCC4)CC3)c3c2OCC3)nc2[nH]cc(C#N)c12 [Example 349, 2-((4-(4-morpholino-piperidine-1-carbonyl)-2,3-dihydro-benzofuran-7-yl)amino)-4-(propylamino)-7H-pyrrolo[2,3-d]pyrimidine-5-carbonitrile] | 36.7 | 32.9 | 53.4 | 21 | 37 |  |  |  |  |  | 
 | < 100 |  | < 100 |  | CC(C)Nc1nc(Nc2ccc(C(=O)N3CCC(N4CCOCC4)CC3)c3c2OCC3)nc2[nH]cc(C(F)(F)F)c12 [Example 450, (7-((4-(isopropylamino)-5-(trifluoromethyl)-7H-pyrrolo[2,3-d]pyrimidin-2-yl)amino)-2,3-dihydrobenzo-furan-4-yl)(4-morpho-linopiperidin-1-yl)methanone] | 7.5 | 11.4 | 84.9 | 37.2 | 66.8 |  |  |  |  |  | 
< 100 | 101 to 300 | < 100 |  |  | CCc1nc(Nc2ccc(C(=O)N3CCC(N4CCOCC4)CC3)c3c2OCCO3)nc2[nH]cc(C(F)(F)F)c12 [Example 395, (8-((4-ethyl-5-(trifluoromethyl)-7H-pyrrolo[2,3-d]pyrimidin-2-yl)amino)-2,3-dihydrobenzo [b][1,4]dioxin-5-yl)(4-morpholino-piperidin-1-yl)methanone] |  |  |  |  |  |  |  |  |  |  | 
 | < 100 | < 100 | 101 to 300 | < 100 | CC(C)CNc1nc(Nc2ccc(C(=O)N3CCC(N4CCOCC4)CC3)c3c2OCC3)nc2[nH]cc(C(F)(F)F)c12 [Example 448, (7-((4-(iso-butylamino)-5-(trifluoromethyl)-7H-pyrrolo[2,3-d]pyrimidin-2-yl)amino)-2,3-dihydrobenzo-furan-4-yl)(4-morpho-linopiperidin-1-yl)methanone] | 17.7 | 26.2 |  |  |  |  |  |  |  |  | 
 | < 100 |  | < 100 |  | COCCNc1nc(Nc2ccc(C(=O)N3CCOCC3)c3c2OCC3)nc2[nH]cc(C(F)(F)F)c12 [Example 442, (7-((4-((2-methoxyethyl)amino)-5-(trifluoromethyl)-7H-pyrrolo[2,3-d]pyrimidin-2-yl)amino)-2,3-dihydrobenzo-furan-4-yl) (morpholino) methanone] | 1.9 | 31.4 | 80.8 | 45 | 51.5 |  |  |  |  |  | 
 | < 100 | < 100 | < 100 | < 100 | COCCNc1nc(Nc2ccc(C(=O)N3CCC(N4CCOCC4)CC3)c3c2OCCO3)nc2[nH]cc(C(F)(F)F)c12 [Example 366, (8-((4-((2-methoxyethyl)amino)-5-(trifluoromethyl)-7H-pyrrolo[2,3-d]pyrimidin-2-yl)amino)-2,3-dihydrobenzo[b] [1,4]dioxin-5-yl) (4-morpholino-piperidin-1-yl)methanone] | 19.2 | 1.1 |  |  |  |  |  |  |  |  | 
 | < 100 |  | < 100 | < 100 | O=C(c1ccc(Nc2nc(N[C@@H]3CCOC3)c3c(C(F)(F)F)c[nH]c3n2)c2c1OCCO2)N1CCN(C2COC2)CC1 [Example 416, (R)-(4-(oxetan-3-yl)piperazin-1-yl)(8-((4-((tetrahydrofuran-3-yl)amino)-5-(trifluoromethyl)-7H-pyrrolo[2,3-d]pyrimidin-2-yl)amino)-2,3-dihydrobenzo[b] [1,4]dioxin-5-yl)methanone] | 8.1 | 45.6 | 86.8 | 54.2 | 75.9 |  |  |  |  |  | 

Compound | IC50 (DYRK1) [nM] | IC50 (human GST-CLK1) [nM] | IC50 (LRRK2) [nM] | IC50 (human GST-DYRK1A) [nM] | IC50 (LRRK2 (G2019S)) [nM] | inhibition at 0.5 µM (TNF-α) [%] | inhibition at 0.5 µM (IL-6) [%] | inhibition at 1 µM (human DYRK1A and tau) [%] | inhibition at 0.25 µM (human DYRK1A and tau; compound 0.25 uM) [%] | inhibition at 0.5 µM (human DYRK1A and tau; compound 0.5 uM) [%] | THP-1/TNF-α (% inhib) (TNF-α) | THP1/IL6 (% inhib) (IL-6) | GI50 (MDA-MB-468 cell line) [nM] | % inhibition at 0.25 uM (human DYRK1A and tau; tau phosphorylation, compound 0.25 uM) [%] | % inhibition at 0.5 uM (human DYRK1A and tau; tau phosphorylation, compound 0.5 uM) [%] | % inhibition at 1 uM (human DYRK1A and tau; tau phosphorylation, compound 1 uM) [%]
CCCNc1nc(Nc2ccc(C(=O)N3CCN(C4COC4)CC3)c3c2OCCO3)nc2[nH]cc(C(F)(F)F)c12 [Example 402, (4-(oxetan-3-yl)piperazin-1-yl)(8-((4-(propylamino)-5-(trifluromethyl)-7H-pyrrolo[2,3-d]pyrimidin-2-yl)amino)-2,3-dihydrobenzo[b] [1,4]dioxin-5-yl)methanone] |  | < 100 |  | < 100 | < 100 |  |  |  |  |  | 1.4 | 18.2 | 301 to 1000 | 7.9 | 26.5 | 61.7
